According to PMC10418599, “Quercetins, Chlorogenic Acids and Their Colon Metabolites Inhibit Colon Cancer Cell Proliferation at Physiologically Relevant Concentrations” (International Journal of Molecular Sciences, 2023):
Values belong to the compound of their own block, whether it stands above or below them.

Columns and labels:
SW480 cell line [1] = experiment: Cell metabolism of phenolic compounds (UHPLC-HR-MS analysis of cell media); format: in vitro ADME, Human; conditions: for Concentration of substrate in cell medium: initial 50 μmol/L
Protocol: To analyze the metabolism of phenolic compounds by Caco-2 and SW480 cells, the cell culture media were withdrawn after 0, 24, 48 and 72 h of incubation. Phenolic compounds were extracted from the culture media by following the procedure reported in Sala et al.. Briefly, 100 μL of cold methanol was mixed with 100 μL of cell media and vortexed for 1 min. The mixture was then centrifuged at 10,000× g (4 °C, 5 min) and the supernatant was injected, after appropriate dilution, in an ultra-high-performance liquid chromatography high-resolution mass spectrometry system (UHPLC-HR-MS).
The HR-MS system consisted of a UHPLC Ultimate 3000 separation module, equipped with a C18 column (Acquity UPLC HSS C18 reversed phase, 2.1 × 100 mm, 1.8 μm particle size, Waters, Milan, Italy) and coupled with a Q Exactive Hybrid Quadrupole-Orbitrap Mass Spectrometer (Thermo Scientific, San Jose, CA, USA). Mobile phases consisted of a mixture of water containing formic acid (0.1%) (mobile phase A) and acetonitrile containing formic acid (0.1%) (mobile phase B). The gradient began at 1% B, reaching 40% B over 20 min. To wash the column, the mobile phase B concentration was raised to 99% over 6 min and kept at 99% for 3 min before returning to the initial conditions. The MS and MS/MS conditions are fully described in Martini et al..
Quantification was carried out by building external calibration curves with the available standard compounds.

SW480 cell line [2] = experiment: Anti-proliferative assay (MTS cell proliferation assay); format: cell-based, Human; conditions: for IC50: maximum tested concentration 200 μmol/L
Protocol: Human colon cancer Caco-2 and SW480 cell lines were cultured and grown as previously reported. […] Incubation was carried out for 24, 48 and 72 h. Data were compared with a control solution containing 0.5% DMSO in cell medium and representing 100% proliferation. In addition, six different mixes were prepared to simulate the simultaneous presence of parent phenolic compounds and metabolites by mimicking the possible human inter-individual variability in colon metabolism of phenolic compounds. Two sets of mixes were prepared to consider the colon metabolism of quercetins and chlorogenic acids. […] For each set of mixtures (QUE and CGA mixtures), three different mixes were formulated. One set of mixes mimicked the low-producers metabotype and contained 90% parent compounds and 10% metabolites (mixes QUE-LP and CGA-LP). Another set of mixes was prepared to simulate the high-producers metabotype and contained 10% parent compounds and 90% metabolites (mixes QUE-HP and CGA-HP). Finally, a third set of mixes was prepared with equimolar amounts of all the compounds (mixes QUE-EQ and CGA-EQ). […] Cell proliferation was assessed by the MTS assay as previously described. […] The IC50 values were calculated through non-linear regression analysis by plotting the base-10 logarithm of the phenolic compound concentration vs. the percentage of inhibition.

[3] = SW480, 24 h, substrate 3,5-di-O-Caffeoylquinic acid 50 μmol/L
[4] = SW480, 48 h, substrate 3,5-di-O-Caffeoylquinic acid 50 μmol/L
[5] = SW480, 72 h, substrate 3,5-di-O-Caffeoylquinic acid 50 μmol/L
[6] = SW480, 24 h, substrate 3-O-Caffeoylquinic acid trans 50 μmol/L
[7] = SW480, 24 h, substrate 5-O-Caffeoylquinic acid trans 50 μmol/L
[8] = SW480, 48 h, substrate 3-O-Caffeoylquinic acid trans 50 μmol/L
[9] = SW480, 48 h, substrate 5-O-Caffeoylquinic acid trans 50 μmol/L
[10] = SW480, 72 h, substrate 3-O-Caffeoylquinic acid trans 50 μmol/L
[11] = SW480, 72 h, substrate 5-O-Caffeoylquinic acid trans 50 μmol/L

SMILES: O=C(/C=C/c1ccc(O)c(O)c1)OC1CC(OC(=O)/C=C/c2ccc(O)c(O)c2)(C(=O)O)CC(O)C1O (stereo not drawn) [1,3-di-O-Caffeoylquinic acid]
Concentration of newly formed metabolite (SW480 cell line [1]; [3]): 8970 ± 40 nM | Concentration of newly formed metabolite (SW480 cell line [1]; [4]): 8870 ± 50 nM | Concentration of newly formed metabolite (SW480 cell line [1]; [5]): 10980 ± 20 nM

SMILES: COc1cc(/C=C/C(=O)OC2CC(O)(C(=O)O)CC(O)C2O)ccc1O (stereo not drawn) [3-O-Feruloylquinic acid]
Concentration of newly formed metabolite (SW480 cell line [1]; [6]): 80 ± 0 nM | Concentration of newly formed metabolite (SW480 cell line [1]; [7]): 60 ± 0 nM | Concentration of newly formed metabolite (SW480 cell line [1]; [8]): 120 ± 0 nM | Concentration of newly formed metabolite (SW480 cell line [1]; [9]): 70 ± 0 nM | Concentration of newly formed metabolite (SW480 cell line [1]; [10]): 170 ± 0 nM | Concentration of newly formed metabolite (SW480 cell line [1]; [11]): 50 ± 0 nM

SMILES: O=c1c(O[C@@H]2O[C@H](CO)[C@@H](O)[C@H](O)[C@H]2O)c(-c2ccc(O[C@@H]3O[C@H](CO)[C@@H](O)[C@H](O)[C@H]3O)c(O)c2)oc2cc(O)cc(O)c12 [Quercetin-3-O-glucoside-4′-O-glucoside, quercetin-3-O-glucoside-4′-O-glucoside]
IC50 (SW480 cell line [2]; SW480, 48 h of incubation): > 200 µM | IC50 (SW480 cell line [2]; SW480, 72 h of incubation): ~200 µM

SMILES: O=c1c(O[C@@H]2O[C@H](CO)[C@@H](O)[C@H](O)[C@H]2O)c(-c2ccc(O)c(O)c2)oc2cc(O)cc(O)c12 [Quercetin-3-O-glucoside]
Concentration of newly formed metabolite (SW480 cell line [1]; SW480, 24 h, substrate Quercetin-3-O-glucoside-4′-O-glucoside 50 μmol/L): 3350 ± 10 nM | Concentration of newly formed metabolite (SW480 cell line [1]; SW480, 48 h, substrate Quercetin-3-O-glucoside-4′-O-glucoside 50 μmol/L): 8940 ± 30 nM | Concentration of newly formed metabolite (SW480 cell line [1]; SW480, 72 h, substrate Quercetin-3-O-glucoside-4′-O-glucoside 50 μmol/L): 9340 ± 50 nM

SMILES: O=C(/C=C/c1ccc(O)c(O)c1)OC1CC(O)(C(=O)O)CC(O)C1OC(=O)/C=C/c1ccc(O)c(O)c1 (stereo not drawn) [3,4-di-O-Caffeoylquinic acid]
Concentration of newly formed metabolite (SW480 cell line [1]; [3]): 10120 ± 100 nM | Concentration of newly formed metabolite (SW480 cell line [1]; [4]): 8040 ± 140 nM | Concentration of newly formed metabolite (SW480 cell line [1]; [5]): 9050 ± 150 nM

Second part, led by results:

Concentration of newly formed metabolite (SW480 cell line [1]; [6]): 4720 ± 40 nM | Concentration of newly formed metabolite (SW480 cell line [1]; [7]): 410 ± 50 nM | Concentration of newly formed metabolite (SW480 cell line [1]; [9]): 360 ± 40 nM | Concentration of newly formed metabolite (SW480 cell line [1]; [10]): 3270 ± 170 nM | Concentration of newly formed metabolite (SW480 cell line [1]; [11]): 720 ± 30 nM
SMILES: O=C(/C=C/c1ccc(O)c(O)c1)O[C@@H]1C[C@](O)(C(=O)O)C[C@@H](O)[C@H]1O [3-O-Caffeoylquinic acid cis, 3-O-Caffeoylquinic acid]

Concentration of newly formed metabolite (SW480 cell line [1]; [6]): 30 ± 0 nM | Concentration of newly formed metabolite (SW480 cell line [1]; [7]): 10 ± 0 nM | Concentration of newly formed metabolite (SW480 cell line [1]; [8]): 30 ± 0 nM | Concentration of newly formed metabolite (SW480 cell line [1]; [9]): 30 ± 0 nM | Concentration of newly formed metabolite (SW480 cell line [1]; [10]): 50 ± 0 nM | Concentration of newly formed metabolite (SW480 cell line [1]; [11]): 30 ± 0 nM
SMILES: COc1cc(/C=C/C(=O)O[C@@H]2C[C@@](O)(C(=O)O)C[C@@H](O)[C@@H]2O)ccc1O [5-O-Feruloylquinic acid]

IC50 (SW480 cell line [2]; SW480, 48 h of incubation): > 200 µM | IC50 (SW480 cell line [2]; SW480, 72 h of incubation): > 200 µM | Concentration of substrate in cell medium (SW480 cell line [1]; SW480, 24 h, listed as 5-O-Caffeoylquinic acid trans): 16760 ± 10 nM | Concentration of newly formed metabolite (SW480 cell line [1]; SW480, 24 h, substrate 3,5-di-O-Caffeoylquinic acid 50 μmol/L, listed as 5-O-Caffeoylquinic acid trans): 80 ± 10 nM | Concentration of newly formed metabolite (SW480 cell line [1]; SW480, 24 h, substrate 3-O-Caffeoylquinic acid trans 50 μmol/L, listed as 5-O-Caffeoylquinic acid trans): 4950 ± 40 nM | Concentration of substrate in cell medium (SW480 cell line [1]; SW480, 48 h, listed as 5-O-Caffeoylquinic acid trans): 17520 ± 80 nM | Concentration of newly formed metabolite (SW480 cell line [1]; SW480, 48 h, substrate 3-O-Caffeoylquinic acid trans 50 μmol/L, listed as 5-O-Caffeoylquinic acid trans): 7370 ± 70 nM | Concentration of substrate in cell medium (SW480 cell line [1]; SW480, 72 h, listed as 5-O-Caffeoylquinic acid trans): 13960 ± 30 nM | Concentration of newly formed metabolite (SW480 cell line [1]; SW480, 72 h, substrate 3,5-di-O-Caffeoylquinic acid 50 μmol/L, listed as 5-O-Caffeoylquinic acid trans): 290 ± 10 nM | Concentration of newly formed metabolite (SW480 cell line [1]; SW480, 72 h, substrate 3-O-Caffeoylquinic acid trans 50 μmol/L, listed as 5-O-Caffeoylquinic acid trans): 11320 ± 430 nM
SMILES: O=C(/C=C/c1ccc(O)c(O)c1)O[C@@H]1C[C@](O)(C(=O)O)C[C@@H](O)[C@H]1O [5-O-Caffeoylquinic acid, 5-O-caffeoylquinic acid]
Percentage of inhibition of SW480 growth (SW480 cell line [2]; 100 μmol/L, 72 h): 14.7%
